Consider 6 compounds from patent publication US20070149406A1, “Plant growth regulation” (Bayer CropScience GmbH, priority 2003, published 2007).

Broadly, the melting point is the temperature, or range, at which the solid turns liquid.

Series [1] deals with maize (Zea mays, variety “LORENZO”). Briefly: Root growth assay, maize. The note with it: for Root Growth: wet root weight 16 days post treatment, Root Growth of 100 set as the standard. The format is in vivo. The text has this: (§1) Plant roots are a highly proliferative tissue that allows an easy accessible, cheap and short term screening method for plant growth regulators. The results obtained can easily be transferred to the overall effects on a plant of plant growth regulators identified by such a system. By using this root assay one is enabled to determine the effect of a seed treatment to root growth and/or germination and/or changes in habitat of germinated plants in order to identify the possible use as a yield enhancer. Two seeds of wheat (Triticum aestivum, variety “TRISO”) or 1 seed of maize (Zea mays, variety “LORENZO”) per hole in a plastic tray which contains an architecture of 8×13 holes were placed on compost soil covered with sand. These seeds were treated with 100 μl/ hole, which creates an application volume of approx. 1200 I/ha, of a compound solution at active ingredient rates equivalent to 100, 10 and 1 g a.i./ha of each compound using an robotic application system (Lizzy Spray Robotics). Six replicates in a row of each compound and concentration were done. The outer rim of the above defined plastic tray was untreated to avoid false negative effects and the middle row (No. 7) was used as untreated control. The treated seeds were allowed to dry for approx. 4 hours and subsequently covered with sand and watered. The trays were stored in climate chambers with 14 hours lighting at a temperature of 24° C. (±2) at daytime and 16° C. (±2) at night and relative humidity (rH) of 60% and daily watered. Assessments were done 16 (±2) days post treatment by counting the germinated plants and assessing the phytotoxicity symptoms and percentage. In addition, the roots were washed out and the shoots were cut directly above the seed and the wet roots were placed on dry paper towels for approximately 30 minutes and weighted afterwards. This procedure provides a similar grade of moisture to the roots so that a comparison of the weights is possible. […] The effects observed concerning Root Growth given in column 2 (Root Growth of “100” is set as the standard) are directed to concentrations that are equivalent to 100, 10, 1 g a.i./ha, each.

Series [2] deals with wheat (Triticum aestivum, variety “TRISO”). Briefly: Root growth assay, wheat. The note with it: for Root Growth: wet root weight 16 days post treatment, Root Growth of 100 set as the standard. The format is in vivo.
Text: as §1

The test system of series [3] is maize hybrid Magister and Zamora. Briefly: Field trial, seed-treated maize, grain yield. The note with it: seed treatment 1 g/100 kg seeds (0.0003 kg/ha). It counts as in vivo. From the text:
Maize seeds of maize hybrid Magister and Zamora were seed treated with compound 1.136 at 1 g/100 kg seeds (0.0003 kg/ha). Field trials were set up in a split plot design representing the plants treated with compounds of formula (I) as well as the non-treated control plants.

Consider `CNc1c([S+]([O-])C(F)(F)F)c(C(=O)N(C)C)nn1-c1c(Cl)cc(C(F)(F)F)cc1Cl` (stereo not shown) [Compound 1.228], for which the “Root Growth” value came out at 72 in series [1] (1 g a.i./ha), 111 in series [1] (10 g a.i./ha) and 186 in series [1] (100 g a.i./ha).

For `Nc1c(SC(F)(F)F)c(C(=O)O)nn1-c1c(Cl)cc(C(F)(F)F)cc1Cl` [Compound 2.10, 5-Amino-1-(2,6-dichloro-4-trifluoromethylphenyl)-4-trifluoromethylthio-1H-pyrazole-3-carboxylic acid], the “Root Growth” value was 158 in series [2] (1 g a.i./ha), 118 in series [2] (10 g a.i./ha) and 134 in series [2] (100 g a.i./ha).

For `CCCCCNC(=O)c1nn(-c2c(Cl)cc(C(F)(F)F)cc2Cl)c(N)c1[S+]([O-])C(F)(F)F` (stereo not shown) [Compound 1.141], the “effect as plant growth regulator in maize (in words)” value in series [1] is “remarkable effect”. Also, the “Root Growth” value in series [1] (1 g a.i./ha) is reported as 111; in series [1] (10 g a.i./ha) it was 102; in series [1] (100 g a.i./ha), 95; in series [2] (1 g a.i./ha) it was 257; in series [2] (10 g a.i./ha), 160; in series [2] (100 g a.i./ha), 256. Also, the “effect as plant growth regulator in wheat (in words)” value in series [2] is listed as “superior effect”.

Take `Nc1c([S+]([O-])C(F)(F)F)c(C(=O)NCC2CCCO2)nn1-c1c(Cl)cc(C(F)(F)F)cc1Cl` (stereo not shown) [Compound 1.144]: the “Root Growth” value in series [2] (1 g a.i./ha) was determined as 170; in series [2] (10 g a.i./ha), 115; in series [2] (100 g a.i./ha), 110.

With `CCOc1c(SC(F)(F)F)c(C(N)=O)nn1-c1c(Cl)cc(C(F)(F)F)cc1Cl` [Compound 3.3, 1-(2,6-Dichloro-4-trifluoromethylphenyl)-5-ethoxy-4-trifluoromethylthio-1H-pyrazole-3-carboxylic acid amide], the melting point is 161 °C.

`NC(=O)c1nn(-c2c(Cl)cc(C(F)(F)F)cc2Cl)c(N)c1[S+]([O-])C(F)(F)F` (stereo not shown) [Compound 1.136]: in series [1], the “effect as plant growth regulator in maize (in words)” value is “significant effects of approximately the same size”. Moreover, the “Root Growth” value is 107 in series [1] (1 g a.i./ha); 131 in series [1] (10 g a.i./ha); 74 in series [1] (100 g a.i./ha); 124 in series [2] (1 g a.i./ha); 75 in series [2] (10 g a.i./ha); 58 in series [2] (100 g a.i./ha). The “effect as plant growth regulator in wheat (in words)” value in series [2] is “significant effects of approximately the same size”. Moreover, the “increase in grain yield compared to non-treated control plants” value was “up to 119%” in series [3] (maize hybrid Magister) and “up to 131%” in series [3] (maize hybrid Zamora).
